Assay: Granisetron in human plasma after APF530 (clinical pharmacokinetics)
Format: in vivo
Conditions: chemo-patients, human trials (FIGS. 3 and 4)

clearance of granisetron: impaired clearance
SMILES: CN1C2CCCC1CC(NC(=O)c1nn(C)c3ccccc13)C2 (stereo not shown) [granisetron]

— patent US20140107226A1, “METHODS FOR ENHANCING STABILITY OF POLYORTHOESTERS AND THEIR FORMULATIONS” (A.P. PHARMA, INC., priority 2008, published 2014)
